According to publication PMC11997890, “In Vivo and In Vitro Pharmacokinetic Studies of a Dual Topoisomerase I/II Inhibitor” (ACS Pharmacology & Translational Science, 2025):

Experiments:
[1] = molecular target: human FMO3 (Homo sapiens, UniProt P31513); assay: Conversion of P8-D6 by recombinant FMO3; type: in vitro ADME; conditions: seven recombinant CYP isoenzymes and human FMO3
Experimental: (§1) P8-D6 N-oxide was the most common metabolite for all incubations with subcellular fractions from the homogenized tissue. According to the detected MS-MS fragments (supplied as Supporting Information Chapter 2), it resulted from N-oxygenation of the nitrogen at the side chain since the unmodified fragment of P8-DO (m/z = 414.1) was detected. Furthermore, the detected fragment at m/z = 440.1 is most likely a carbocation at the remaining ethyl chain after splitting off the dimethylamine N-oxide further strengthening the theory of selectively forming this specific N-oxide. In addition, no relevant chemical shifts in the aromatic range of the ^1H NMR compared to P8-D6 and mono were observed (supplied as Supporting Information Chapter 2). Thus, no chemical modifications can have occurred on the aromatic rings, and all changes must therefore affect the side chain. […] To determine which enzymes were responsible for the conversion, seven recombinant CYP 450 isoenzymes recommended by the FDA’s “Guidance for Industry” and human FMO3 were used.
(§2) For all phase I metabolism studies (except cell cultures), a 0.3 mL reaction mixture consisting of 1 mM substrate (P8-D6, P8-D6 mono, P8-D6 N-oxide), 1 mM NADPH as a cofactor, 0.67 mg/mL protein from homogenized tissue or subcellular fractions, respectively (except recombinant enzymes, where 0.5 mg/mL was used), and PBS buffer (pH 7.4) was used. […]

[2] = In vitro biotransformation of P8-D6 with rat tissue fractions; type: in vitro ADME; conditions: 1 mM P8-D6, 150 min
Experimental: P8-D6 (1 mM) was incubated with postnuclear supernatant (PNS), microsomes, or S9 reaction mixture of various tissue samples (liver, kidney, lung, spleen, and colon) from different donor species (pigs, mice, rats, and humans) for 150 min (study preparation scheme supplied as Figure S5). The commercial human and rat enzymes were subjected to quality control by the supplier. Three phase I metabolites were identified. […] LC-MS and NMR spectroscopic data for the metabolites are given in Supporting Information. Based on the structural characteristics, the metabolites were named as follows: P8-DO (4), P8-D6 N-oxide (6), and P8-D6 mono (8). All metabolites were synthesized to confirm the postulated structure (chapter Synthesis of Metabolites). The extent of metabolism during in vitro incubation was highly dependent on the species (pig > mouse > rat > human) (Figure ).
as §2, with “used. All experiments were performed in biological triplicates.” for “used.”

[3] = molecular target: T1, CYP3A4 (Homo sapiens, UniProt P08684); assay: Conversion of P8-D6 by recombinant CYP3A4; type: in vitro ADME
T1 construct: host or cells: human liver microsomes (one value) / recombinant CYP enzyme (other value)
T1 sequence (P08684 whole entry): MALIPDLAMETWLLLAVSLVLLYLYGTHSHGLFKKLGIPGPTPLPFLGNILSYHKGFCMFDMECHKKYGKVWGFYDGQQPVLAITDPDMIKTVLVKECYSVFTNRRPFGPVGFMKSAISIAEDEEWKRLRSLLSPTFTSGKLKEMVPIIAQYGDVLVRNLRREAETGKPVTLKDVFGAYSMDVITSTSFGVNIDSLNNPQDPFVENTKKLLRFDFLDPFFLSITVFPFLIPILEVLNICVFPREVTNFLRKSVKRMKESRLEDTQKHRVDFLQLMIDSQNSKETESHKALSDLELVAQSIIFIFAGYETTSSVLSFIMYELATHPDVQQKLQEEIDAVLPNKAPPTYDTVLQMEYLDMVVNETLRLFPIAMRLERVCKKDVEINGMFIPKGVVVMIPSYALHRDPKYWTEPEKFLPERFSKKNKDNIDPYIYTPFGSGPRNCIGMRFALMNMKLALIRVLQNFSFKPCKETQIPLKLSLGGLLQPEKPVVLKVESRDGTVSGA
Experimental: as §1
Among the recombinant enzymes, P8-D6 is mostly metabolized to P8-D6 mono by CYP3A4 (0.34%, significant compared to any other enzyme, p < 0.0001) and 2D6 (0.17%, significant compared to 2C8, 1A2, 2C19, and 2C9, p < 0.005) (Figure E). […]

[4] = mice; ref not given; cited from earlier work
[5] = molecular target: T2, CYP2C8 (Homo sapiens, UniProt P10632); assay: In vitro CYP inhibition, marker substrate amodiaquine; type: in vitro ADME
T2 construct: host or cells: human liver microsomes (one value) / recombinant CYP enzyme (other value)
T2 sequence (P10632 whole entry): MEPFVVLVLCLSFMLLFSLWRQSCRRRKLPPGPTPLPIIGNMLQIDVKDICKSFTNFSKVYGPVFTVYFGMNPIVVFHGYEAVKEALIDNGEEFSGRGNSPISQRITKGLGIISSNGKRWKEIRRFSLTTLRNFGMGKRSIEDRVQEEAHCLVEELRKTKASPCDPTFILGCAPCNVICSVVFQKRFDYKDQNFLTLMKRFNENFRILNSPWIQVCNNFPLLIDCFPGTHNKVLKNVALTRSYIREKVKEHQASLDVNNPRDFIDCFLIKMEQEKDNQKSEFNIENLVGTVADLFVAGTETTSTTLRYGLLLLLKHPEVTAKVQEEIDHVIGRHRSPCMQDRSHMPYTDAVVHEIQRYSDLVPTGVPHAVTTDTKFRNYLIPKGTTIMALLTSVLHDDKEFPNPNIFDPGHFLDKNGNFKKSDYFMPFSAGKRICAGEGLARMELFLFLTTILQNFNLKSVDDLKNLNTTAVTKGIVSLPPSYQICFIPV
Experimental: (§3) To assess metabolizing enzyme-mediated drug interactions, P8-D6 was incubated with human liver (HLM) or recombinant CYP enzymes and the respective marker substrate according to the FDA (with the exception of using amitriptyline instead of S-mephenytoin). −
(§4) However, as some conversions were catalyzed by several enzymes, the conversion rates in HLM increased (e.g., bupropion and diclofenac).
(§5) To examine a possible in vitro CYP inhibition, the following CYP enzymes and marker substrates were investigated according to the FDA: , phenacetin (CYP1A2), bupropion (CYP2B6), amodiaquine (CYP2C8), diclofenac (CYP2C9), amitriptyline (CYP2C19), dextromethorphan (CYP2D6), testosterone (CYP3A4), and nifedipine (CYP3A4). Incubation was performed in a 0.2 mL reaction mix consisting of PBS buffer (pH 7.4), 1 mM marker substrate, 1 mM NADPH, and either 0.5 mg/mL recombinant CYP enzyme or human liver microsomes. P8-D6 was added for a final concentration of 0.5 μM, 1 μM, 5 μM, 10 μM, 25 μM, 50 μM, 100 μM, 500 μM, 1000 μM, and (in some cases) 5000 μM. Sample preparation was performed according to in vitro biotransformation.

[6] = molecular target: T3, CYP2D6 (Homo sapiens, UniProt P10635); assay: In vitro CYP inhibition, marker substrate dextromethorphan; type: in vitro ADME
T3 construct: host or cells: human liver microsomes (one value) / recombinant CYP enzyme (other value)
T3 sequence (P10635 whole entry): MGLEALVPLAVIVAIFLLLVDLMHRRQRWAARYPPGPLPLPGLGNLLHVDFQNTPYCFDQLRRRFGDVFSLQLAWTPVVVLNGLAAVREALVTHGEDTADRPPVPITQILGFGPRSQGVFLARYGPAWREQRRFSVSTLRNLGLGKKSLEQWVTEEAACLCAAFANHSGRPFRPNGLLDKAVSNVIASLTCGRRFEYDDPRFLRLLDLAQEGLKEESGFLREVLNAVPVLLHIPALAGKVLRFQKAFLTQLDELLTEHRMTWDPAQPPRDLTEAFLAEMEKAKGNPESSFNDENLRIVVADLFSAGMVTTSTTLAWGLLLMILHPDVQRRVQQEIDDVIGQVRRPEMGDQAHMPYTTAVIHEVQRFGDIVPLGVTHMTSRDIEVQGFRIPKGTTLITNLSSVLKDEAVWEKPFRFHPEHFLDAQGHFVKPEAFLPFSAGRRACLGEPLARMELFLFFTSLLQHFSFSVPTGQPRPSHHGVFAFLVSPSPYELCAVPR
Experimental: as §3, §4, §5

[7] = molecular target: T4, BCRP (ABCG2) (Homo sapiens, UniProt Q9UNQ0); assay: Transporter inhibition, calcein-AM accumulation in MDCKII cells (BCRP overexpression); type: cell-based; conditions: intracellular accumulation of calcein-AM
T4 construct: expressed in transfected cells; host or cells: MDCKII
T4 sequence (Q9UNQ0 whole entry, species assumed): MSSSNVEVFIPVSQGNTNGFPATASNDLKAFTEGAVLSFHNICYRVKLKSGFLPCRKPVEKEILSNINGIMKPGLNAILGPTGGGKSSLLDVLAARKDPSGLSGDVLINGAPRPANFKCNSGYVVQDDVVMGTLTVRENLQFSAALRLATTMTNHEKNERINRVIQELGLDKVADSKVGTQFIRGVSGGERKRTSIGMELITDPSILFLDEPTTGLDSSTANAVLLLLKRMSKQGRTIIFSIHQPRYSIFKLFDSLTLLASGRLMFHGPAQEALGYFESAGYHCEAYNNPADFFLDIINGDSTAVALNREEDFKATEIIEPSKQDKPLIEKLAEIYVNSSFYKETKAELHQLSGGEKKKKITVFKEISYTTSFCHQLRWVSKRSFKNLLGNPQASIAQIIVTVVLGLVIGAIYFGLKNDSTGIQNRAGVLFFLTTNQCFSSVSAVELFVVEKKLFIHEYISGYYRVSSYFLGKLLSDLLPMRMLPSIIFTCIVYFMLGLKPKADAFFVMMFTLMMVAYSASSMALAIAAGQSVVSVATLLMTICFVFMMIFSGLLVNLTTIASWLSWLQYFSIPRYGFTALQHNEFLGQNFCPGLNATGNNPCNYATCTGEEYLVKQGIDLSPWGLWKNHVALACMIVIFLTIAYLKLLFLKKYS
Experimental: The inhibitory characteristics of P8-D6 on the classic efflux transporters P-GP and BCRP (ABCG2) were evaluated (Figure ).
A potential interaction of P8-D6 with the export protein P-GP (ABCB1) was evaluated in MDCK (P-GP overexpression) and MDCKII (BCRP overexpression) cells. P-GP interaction was determined by the measurement of calcein accumulation within the cells according to Bauer et al. Calcein-acetoxymethylester (calcein-AM) is a nonfluorescent, lipophilic and therefore highly cell-permeable ester. Once inside the cell, the ester bonds are rapidly cleaved by nonspecific esterases, generating highly fluorescent calcein, which is trapped inside the cell because of its hydrophilic nature. Because calcein-AM is a substrate for P-GP, inhibition of the transporter decreases efflux, which results in a higher intracellular fluorescence signal. […] Calcein-AM (MoBiTec, Göttingen, FRG) was added to a final concentration of 1 μM and incubated for 30 min at 37 °C. Afterward, the cells were immediately washed 3 times with ice-cold Krebs–Ringer buffer and lysed with 1% Triton X-100. […] Each determination was repeated 3 times in 2 experiments to ensure reproducibility. All fluorescence values were corrected by subtracting the background fluorescence.

[8] = molecular target: T5, CYP2C9 (Homo sapiens, UniProt P11712); assay: Conversion of P8-D6 by recombinant CYP2C9; type: in vitro ADME
T5 construct: host or cells: human liver microsomes (one value) / recombinant CYP enzyme (other value)
T5 sequence (P11712 whole entry): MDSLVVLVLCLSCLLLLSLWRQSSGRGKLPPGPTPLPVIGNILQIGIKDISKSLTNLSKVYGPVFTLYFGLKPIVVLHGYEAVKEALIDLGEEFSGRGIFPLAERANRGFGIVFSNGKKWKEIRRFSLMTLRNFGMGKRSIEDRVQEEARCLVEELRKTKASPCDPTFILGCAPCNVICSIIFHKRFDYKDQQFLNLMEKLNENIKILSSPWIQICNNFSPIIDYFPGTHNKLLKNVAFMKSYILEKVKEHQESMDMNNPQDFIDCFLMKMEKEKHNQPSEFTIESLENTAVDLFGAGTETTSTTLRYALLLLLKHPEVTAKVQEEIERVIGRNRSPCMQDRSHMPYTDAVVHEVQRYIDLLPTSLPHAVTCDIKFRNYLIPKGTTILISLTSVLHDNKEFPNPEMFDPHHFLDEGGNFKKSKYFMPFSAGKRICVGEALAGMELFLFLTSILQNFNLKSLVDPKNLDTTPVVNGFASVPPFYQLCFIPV
Experimental: as §1
The third and final in vitro metabolite, P8-DO, is a direct synthesis precursor of P8-D6 and results from oxidative O-desalkylation of the complete side chain (Figure ). […] The formation of P8-DO is mainly catalyzed by CYP2C9 (0.10%) and 2D6 (0.09%) (Figure E). […]

Sequence of human FMO3 (P31513 whole entry, the tested form may be a part): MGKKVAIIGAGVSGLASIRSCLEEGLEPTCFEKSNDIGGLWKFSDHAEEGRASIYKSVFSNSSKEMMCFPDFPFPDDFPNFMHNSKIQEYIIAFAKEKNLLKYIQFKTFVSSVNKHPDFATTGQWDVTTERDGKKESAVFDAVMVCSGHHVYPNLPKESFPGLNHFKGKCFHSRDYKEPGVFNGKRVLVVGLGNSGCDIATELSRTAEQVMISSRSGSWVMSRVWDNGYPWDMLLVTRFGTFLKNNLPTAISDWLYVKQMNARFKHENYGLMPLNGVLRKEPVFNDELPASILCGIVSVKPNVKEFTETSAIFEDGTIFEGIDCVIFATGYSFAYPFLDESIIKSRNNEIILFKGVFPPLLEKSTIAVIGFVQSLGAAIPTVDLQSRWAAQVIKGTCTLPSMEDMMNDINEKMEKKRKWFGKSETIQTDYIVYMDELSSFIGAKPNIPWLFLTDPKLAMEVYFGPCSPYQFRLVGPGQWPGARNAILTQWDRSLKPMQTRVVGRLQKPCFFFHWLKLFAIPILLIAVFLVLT

Question: With `COc1cc(-c2cc3ccncc3c3nc(OCC[N+](C)(C)[O-])c4cnccc4c23)cc(OC)c1OC` [P8-D6 N-oxide] as the compound, how does the “formation of metabolite from P8-D6 by recombinant enzymes” value [1] read?
Answer: only with FMO3

Question: And the “formation of metabolite from P8-D6” value ([2]; rat liver microsomes)?
Answer: 1.91%

Question: What about the “formation of metabolite from P8-D6” value ([2]; rat lung PNS) of the same compound?
Answer: 1.37%

Question: With `CNCCOc1nc2c3cnccc3cc(-c3cc(OC)c(OC)c(OC)c3)c2c2ccncc12` [P8-D6 mono] as the compound, how does the “formation of metabolite from P8-D6” value [3] read?
Answer: 0.34%

Question: With `COc1cc(-c2cc3ccncc3c3nc(OCCN(C)C)c4cnccc4c23)cc(OC)c1OC` [P8-D6, 6-(N,N-dimethyl-2-aminoethoxy)-11-(3,4,5-trimethoxyphenyl)-pyrido[3,4-c][1,9]-phenanthroline] as the compound, how does the maximum tolerated dose [4] read?
Answer: 5 mg/kg BW

Question: What about the IC50 ([5]; HLM) of the same compound?
Answer: 246 µM

Question: What about the IC50 ([5]; recombinant CYP isoenzyme) of the same compound?
Answer: 282 µM

Question: And the IC50 ([6]; HLM)?
Answer: 285 µM

Question: And the IC50 ([6]; recombinant CYP isoenzyme)?
Answer: 166 µM

Question: And the IC50 [7]?
Answer: 16.3 µM

Question: With `COc1cc(-c2cc3ccncc3c3[nH]c(=O)c4cnccc4c23)cc(OC)c1OC` [P8-DO] as the compound, how does the “formation of metabolite from P8-D6” value [8] read?
Answer: 0.10%
